Data on 13 compounds can be found in patent US20260337190A1, “CRYSTAL FORM OF PYRIDINOPYRIMIDINONE COMPOUND, ACID SALT THEREOF, CRYSTAL FORM OF ACID SALT THEREOF, AND USE” (Wuhan Humanwell Innovative Drug Research and Development …, priority 2022, published 2026).

Broadly, the solubility is the dissolved amount per volume that the medium holds.

What all share (assay type): physicochemical
Data set [1] can be described thus: Variable temperature XRPD (VT-XRPD) of crystal forms. The note with it: for crystal form on exposure to air: exposed to air after N2 purging/heating; for crystal form on heating to 150 °C: N2, heated to 150 °C and cooled. The text has this: The XRPD pattern was collected on an X-ray powder diffraction analyzer produced by PANalytacal, and the scanning parameters are shown in Table 2.
The crystal form A of the compound of formula I of Example 2 was identified using variable temperature XRPD (VT-XRPD).

The nature of data set [2]: Dynamic solubility in water, SGF, FaSSIF and FeSSIF. The note with it: for solubility in water, SGF, FaSSIF and FeSSIF: 10 mg/mL feed, 1, 4, 24 hours. As for the experimental part: Purified water was added to complete dissolution.
A short description of data set [3]: Solid state stability (25 °C/60% RH and 40 °C/75% RH, one week; XRPD and HPLC). The note with it: for solid state stability: open condition, one week, 25 °C/60% RH and 40 °C/75% RH. The protocol:
The purity test, dynamic solubility test, and stability test in the assay were measured with an Agilent 1260 high-performance liquid chromatograph, and the salt formation molar ratio of ions was tested by ion chromatography, and the analytical conditions are shown in Table 5 and Table 6.

Data set [4] in a line: Hygroscopicity by dynamic vapor sorption (DVS). The note with it: 25 °C. As for the experimental part:
The dynamic vapor sorption (DVS) curve was collected on DVS IntrInsic from SMS (surface measurement systems). The relative humidity at 25 °C was corrected using the deliquescence points of LiCl, Mg(NO3)2, and KCl.
Starting from 0% RH or room humidity, the test collected the mass change percentage of the sample as the humidity changed (0% RH to 95% RH) under constant temperature conditions of 25 °C The results of the DVS test and the XRPD results of the samples before and after the DVS test are shown in FIG. 113 to FIG. 122.

The structures appear in SMILES notation. Structures can show the parent of a compound that is named as a salt.

`Cc1nc(N[C@H](C)c2cccc(S(F)(F)(F)(F)F)c2)c2cn(C3(CF)CC3)c(=O)cc2n1` [crystal form B of the compound of formula I]: the “crystal form on exposure to air” value in data set [1] is “transcrystallized back to the crystal form A”. Moreover, the “crystal form on heating to 100 °C and cooling to 30 °C” value in data set [1] (under N2, 100 °C, cooled to 30 °C) was “No crystal change was observed”.
Consider `Cc1nc(N[C@H](C)c2cccc(S(F)(F)(F)(F)F)c2)c2cn(C3(CF)CC3)c(=O)cc2n1` [Crystal form A of methanesulfonate salt], for which the pH of filtrate in data set [2] (FaSSIF, 1 hour, 37 °C) worked out at 4.3; in data set [2] (FaSSIF, 4 hours, 37 °C) it was 4.4; in data set [2] (FaSSIF, 24 hours, 37 °C), 4.0; in data set [2] (FeSSIF, 1 hour, 37 °C) it was 4.8; in data set [2] (FeSSIF, 4 hours, 37 °C), 4.8; in data set [2] (FeSSIF, 24 hours, 37 °C) it was 4.8. Also, the pH of filtrate in data set [2] (H2O, 1 hour, 37 °C) was 3.5; in data set [2] (H2O, 4 hours, 37 °C), 3.5; in data set [2] (H2O, 24 hours, 37 °C) it was 3.1; in data set [2] (SGF, 1 hour, 37 °C) it was 1.7; in data set [2] (SGF, 4 hours, 37 °C), 1.8; in data set [2] (SGF, 24 hours, 37 °C), 1.6. Moreover, the “S: solubility” value in data set [2] (FeSSIF, 1 hour, 37 °C, 60 min) stood at 4040 µg/mL.
With `Cc1nc(N[C@H](C)c2cccc(S(F)(F)(F)(F)F)c2)c2cn(C3(CF)CC3)c(=O)cc2n1` [Crystal form B citrate salt], the “HPLC results Purity (solid state stability)” value (“HPLC results Purity” below) amounted to 99.00 area % in data set [3] (25 °C/60% RH/open, 1 week); 99.01 area % in data set [3] (40 °C/75% RH/open, 1 week); 98.92 area % in data set [3] (Onset).
For `Cc1nc(N[C@H](C)c2cccc(S(F)(F)(F)(F)F)c2)c2cn(C3(CF)CC3)c(=O)cc2n1` [Crystal form A fumarate salt], the “HPLC results Purity” value in data set [3] (25 °C/60% RH/open, 1 week) amounted to 98.67 area %; in data set [3] (40 °C/75% RH/open, 1 week), 98.70 area %; in data set [3] (Onset) it was 98.67 area %.
For `Cc1nc(N[C@H](C)c2cccc(S(F)(F)(F)(F)F)c2)c2cn(C3(CF)CC3)c(=O)cc2n1` [Crystal form A methanesulfonate salt], the “HPLC results Purity” value in data set [3] (25 °C/60% RH/open, 1 week) came out at 99.21 area %; in data set [3] (40 °C/75% RH/open, 1 week), 99.26 area %; in data set [3] (Onset), 99.18 area %.
Take `Cc1nc(N[C@H](C)c2cccc(S(F)(F)(F)(F)F)c2)c2cn(C3(CF)CC3)c(=O)cc2n1` [Crystal form A of ethanesulfonate salt]: the pH of filtrate in data set [2] (FaSSIF, 1 hour, 37 °C) turned out to be 4.5; in data set [2] (FaSSIF, 4 hours, 37 °C), 4.2; in data set [2] (FaSSIF, 24 hours, 37 °C) it was 3.7; in data set [2] (FeSSIF, 1 hour, 37 °C), 4.8; in data set [2] (FeSSIF, 4 hours, 37 °C) it was 4.8; in data set [2] (FeSSIF, 24 hours, 37 °C), 4.7. The pH of filtrate is 2.9 in data set [2] (H2O, 1 hour, 37 °C); 3.1 in data set [2] (H2O, 4 hours, 37 °C); 2.8 in data set [2] (H2O, 24 hours, 37 °C); 1.6 in data set [2] (SGF, 1 hour, 37 °C); 1.5 in data set [2] (SGF, 4 hours, 37 °C); 1.5 in data set [2] (SGF, 24 hours, 37 °C). Besides, the “S: solubility” value in data set [2] (FaSSIF, 4 hours, 37 °C, 240 min) is 1610 µg/mL; in data set [2] (FeSSIF, 4 hours, 37 °C, 240 min) it was 3620 µg/mL; in data set [2] (H2O, 1 hour, 37 °C, 60 min), 10060 µg/mL; in data set [2] (H2O, 4 hours, 37 °C, 240 min), 9810 µg/mL; in data set [2] (H2O, 24 hours, 37 °C, 1440 min), 10080 µg/mL; in data set [2] (SGF, 4 hours, 37 °C, 240 min), 10130 µg/mL. Besides, the “S: solubility” value in data set [2] (SGF, 24 hours, 37 °C, 1440 min) was determined as 10110 µg/mL.
Consider `Cc1nc(N[C@H](C)c2cccc(S(F)(F)(F)(F)F)c2)c2cn(C3(CF)CC3)c(=O)cc2n1` [Crystal form A of fumarate salt], for which the pH of filtrate amounted to 4.8 in data set [2] (FaSSIF, 1 hour, 37 °C); 4.6 in data set [2] (FaSSIF, 4 hours, 37 °C); 4.3 in data set [2] (FaSSIF, 24 hours, 37 °C); 4.6 in data set [2] (FeSSIF, 1 hour, 37 °C); 4.8 in data set [2] (FeSSIF, 4 hours, 37 °C); 4.7 in data set [2] (FeSSIF, 24 hours, 37 °C). The pH of filtrate in data set [2] (H2O, 1 hour, 37 °C) was found to be 4.2; in data set [2] (H2O, 4 hours, 37 °C), 4.2; in data set [2] (H2O, 24 hours, 37 °C) it was 4.1; in data set [2] (SGF, 1 hour, 37 °C), 1.8; in data set [2] (SGF, 4 hours, 37 °C) it was 2.0; in data set [2] (SGF, 24 hours, 37 °C) it was 1.7. Further, the solubility at 1 h in data set [2] (fessif, 1 hour, 37 °C, read-out: S: solubility) was determined as 3510 µg/mL. For the same compound, the solubility at 4 h in data set [2] (fessif, 4 hours, 37 °C, read-out: S: solubility) was 2390 µg/mL. Also, the solubility at 24 h in data set [2] (fessif, 24 hours, 37 °C, read-out: S: solubility) is 2180 µg/mL.
Regarding `Cc1nc(N[C@H](C)c2cccc(S(F)(F)(F)(F)F)c2)c2cn(C3(CF)CC3)c(=O)cc2n1` [Crystal form A ethanesulfonate salt], the “HPLC results Purity” value in data set [3] (25 °C/60% RH/open, 1 week) worked out at 99.15 area %; in data set [3] (40 °C/75% RH/open, 1 week), 99.29 area %; in data set [3] (Onset) it was 99.10 area %.
For `Cc1nc(N[C@H](C)c2cccc(S(F)(F)(F)(F)F)c2)c2cn(C3(CF)CC3)c(=O)cc2n1` [Crystal form A of compound of formula I], the pH of filtrate in data set [2] (FaSSIF, 1 hour, 37 °C) is given as 6.3; in data set [2] (FaSSIF, 4 hours, 37 °C), 6.3; in data set [2] (FaSSIF, 24 hours, 37 °C), 6.4; in data set [2] (FeSSIF, 1 hour, 37 °C) it was 5.1; in data set [2] (FeSSIF, 4 hours, 37 °C), 5.1; in data set [2] (FeSSIF, 24 hours, 37 °C), 5.1. The pH of filtrate in data set [2] (H2O, 1 hour, 37 °C) is given as 5.4; in data set [2] (H2O, 4 hours, 37 °C), 6.0; in data set [2] (H2O, 24 hours, 37 °C), 5.8; in data set [2] (SGF, 1 hour, 37 °C), 3.2; in data set [2] (SGF, 4 hours, 37 °C) it was 3.3; in data set [2] (SGF, 24 hours, 37 °C), 3.2. The “S: solubility” value in data set [2] (FeSSIF, 1 hour, 37 °C, 60 min) was 2720 µg/mL.
`Cc1nc(N[C@H](C)c2cccc(S(F)(F)(F)(F)F)c2)c2cn(C3(CF)CC3)c(=O)cc2n1` [crystal form A of the fumarate salt of the compound of formu]: the “solubility in water, SGF, FaSSIF and FeSSIF” value in data set [2] (37 °C) is recorded as “high solubility”. For the same compound, in data set [2] (XRPD after solubility test), the “change in crystal form after solubility test” value was “no change in crystal form is observed”. Moreover, the solid state stability entry in data set [3] was “good stability”. Also, in data set [1], the “crystal form on heating to 150 °C” value is on record as “No change in the crystal form was observed” and the “crystal form on exposure to air” value is listed as “transcrystallized back to the crystal form A of the fumarate salt”. The “crystal form on N2 purging” value in data set [1] (purged with N2 for 20 minutes) is recorded as “a peak shift was observed”. Besides, the “moisture behaviour higher than 10% RH” value in data set [4] (higher than 10% RH) was “absorb more moisture and gain more weight with the increase of humidity”. Moreover, the “moisture behaviour lower than 10% RH” value in data set [4] (lower than 10% RH) is listed as “rapidly dehydrate”.
Turning to `Cc1nc(N[C@H](C)c2cccc(S(F)(F)(F)(F)F)c2)c2cn(C3(CF)CC3)c(=O)cc2n1` [Crystal form A compound formula I], the “HPLC results Purity” value in data set [3] (25 °C/60% RH/open, 1 week) turned out to be 97.13 area %; in data set [3] (40 °C/75% RH/open, 1 week) it was 97.14 area %; in data set [3] (Onset), 97.06 area %.
Consider `Cc1nc(N[C@H](C)c2cccc(S(F)(F)(F)(F)F)c2)c2cn(C3(CF)CC3)c(=O)cc2n1` [crystal form A of the methanesulfonate salt of the compound ], for which the “solubility in water, SGF, FaSSIF and FeSSIF” value in data set [2] (37 °C) is recorded as “high solubility”. For the same compound, the solid state stability entry in data set [3] is on record as “good stability”. Further, in data set [1], the “crystal form on heating to 150 °C” value is reported as “no change in the crystal form was observed”. For the same compound, the hygroscopicity entry in data set [4] (0% RH to 95% RH) is reported as “slightly hygroscopic”.
`Cc1nc(N[C@H](C)c2cccc(S(F)(F)(F)(F)F)c2)c2cn(C3(CF)CC3)c(=O)cc2n1` [Crystal form B of citrate salt]: the pH of filtrate in data set [2] (FaSSIF, 1 hour, 37 °C) is recorded as 4.5; in data set [2] (FaSSIF, 4 hours, 37 °C), 3.9; in data set [2] (FaSSIF, 24 hours, 37 °C), 3.6; in data set [2] (FeSSIF, 1 hour, 37 °C), 4.8; in data set [2] (FeSSIF, 4 hours, 37 °C), 4.6; in data set [2] (FeSSIF, 24 hours, 37 °C), 4.5. In addition, the pH of filtrate in data set [2] (H2O, 1 hour, 37 °C) was 3.5; in data set [2] (H2O, 4 hours, 37 °C) it was 3.5; in data set [2] (H2O, 24 hours, 37 °C) it was 3.3; in data set [2] (SGF, 1 hour, 37 °C), 2.5; in data set [2] (SGF, 4 hours, 37 °C) it was 2.6; in data set [2] (SGF, 24 hours, 37 °C), 2.4.
